Reference: ChEMBL document CHEMBL5634166, “Structural modification of tanshinone IIA and their α-glucosidase inhibitory activity” (Bioorg Med Chem Lett, 2024)
The source made the active and inactive calls. No cut-off for these calls is given here.

Legend:
[1] = biological target: T1, Alpha-glucosidase (Saccharomyces cerevisiae S288c) (UniProt P53341+P38158+P07265); experiment: Inhibition of yeast alpha glucosidase at 50 uM relative to control; type: protein assay
Alpha-glucosidase [2] = biological target: T2, Alpha-glucosidase (Saccharomyces cerevisiae S288c, UniProt P53341+P38158+P07265); experiment: Inhibition of alpha-glucosidase (unknown origin); type: protein assay, Homo sapiens
[3] = biological target: T1, Alpha-glucosidase (Saccharomyces cerevisiae S288c); experiment: Potency index, ratio of acarbose IC50 to test compound IC50 for inhibition of yeast alpha glucosidase; type: protein assay
Alpha-glucosidase [4] = biological target: T2, Alpha-glucosidase; experiment: Inhibition of yeast alpha-glucosidase; type: protein assay
Alpha-glucosidase [5] = biological target: T2, Alpha-glucosidase; experiment: Binding affinity to yeast alpha glucosidase assessed as inhibition constant; type: protein assay
[6] = biological target: T1, Alpha-glucosidase (Saccharomyces cerevisiae S288c); experiment: Competitive inhibition of yeast alpha-glucosidase assessed as […] with constant Vmax by Lineweaver-Burk plot analysis; type: protein assay
Alpha-glucosidase [7] = biological target: T2, Alpha-glucosidase; experiment: Inhibition of Saccharomyces cerevisiae alpha-glucosidase using p-nitrophenyl-alpha-D-glucopyranoside as substrate preincubated for 5 mins followed by substrate addition and measured after 30 mins by spectrophotometric analysis; type: protein assay

Row | Structure (SMILES) | inhibition [1] | IC50 (Alpha-glucosidase [4]) | other results
1 | Cc1coc2c3ccc4c(c3c3oc(-c5ccc(Br)cc5)nc3c12)CCCC4(C)C | < 80% |  | 
2 | Oc1ccc(/C=N/c2nnc(-c3ccc(O)cc3)o2)cc1 |  |  | IC50 (Alpha-glucosidase [2]): 0.3 µM
3 | Cc1coc2c3ccc4c(c3c3oc(-c5ccc(Cl)cc5)nc3c12)CCCC4(C)C | > 80% | 3.45 µM | Ratio IC50 [3]: 30
4 | COc1cc(-c2nc3c(o2)c2c4c(ccc2c2occ(C)c32)C(C)(C)CCC4)ccc1O | < 80% |  | 
5 | Cc1coc2c3ccc4c(c3c3oc(Cc5ccccc5)nc3c12)CCCC4(C)C | > 80% | 4.14 µM | 
6 | Cc1coc2c3ccc4c(c3c3oc(CCc5ccccc5)nc3c12)CCCC4(C)C | > 80% | 9.46 µM | 
7 | Cc1coc2c3ccc4c(c3c3oc(CCCc5ccccc5)nc3c12)CCCC4(C)C | < 80% |  | 
8 | Cc1coc2c1C(=O)C(=O)c1c-2ccc2c1CCCC2(C)C [TANSHINONE IIA] | > 80% | 11.39 µM | 
9 | Cc1coc2c3ccc4c(c3c3oc(-c5ccccc5)nc3c12)CCCC4(C)C | > 80% | 3.51 µM | 
10 | Cc1coc2c3ccc4c(c3c3oc(Cc5ccc(O)c(O)c5)nc3c12)CCCC4(C)C | > 80% | 0.73 µM | Ki (Alpha-glucosidase [5]): 12.1 µM; inhibition [6]: Active
11 | C=C(C)[C@@H]1CC[C@]2(C(=O)NCC(=O)O)CC[C@]3(C)[C@H](CC[C@@H]4[C@@]5(C)Cc6c([nH]c7ccccc67)C(C)(C)[C@@H]5CC[C@]43C)[C@@H]12 |  |  | IC50 (Alpha-glucosidase [7]): 0.04 µM
12 | Cc1coc2c3ccc4c(c3c3oc(-c5ccc(C(F)(F)F)cc5)nc3c12)CCCC4(C)C | > 80% | 2.33 µM | 

The next lines start with results.

Row | inhibition [1] | IC50 (Alpha-glucosidase [4]) | Structure (SMILES) | other results
13 | < 80% |  | Cc1coc2c3ccc4c(c3c3oc(-c5ccccc5F)nc3c12)CCCC4(C)C | 
14 | > 80% | 3.21 µM | Cc1coc2c3ccc4c(c3c3oc(Cc5ccc(O)cc5)nc3c12)CCCC4(C)C | 
15 | < 80% |  | COc1ccc(-c2nc3c(o2)c2c4c(ccc2c2occ(C)c32)C(C)(C)CCC4)c(OC)c1 | 
16 | < 80% |  | Cc1coc2c3ccc4c(c3c3oc(-c5ccccc5C(F)(F)F)nc3c12)CCCC4(C)C | 
17 | > 80% | 6.67 µM | Cc1coc2c3ccc4c(c3c3oc(-c5ccc(Cl)c(Cl)c5)nc3c12)CCCC4(C)C | 
